Test results as given in patent US20120107323A1, “KINASE PROTEIN BINDING INHIBITORS” (University of Florida, priority 2009, published 2012).

Key:
[1] = tested on: AsPC1 pancreatic cancer cells; test: Cell viability (MTT), AsPC1; assay type: cell-based; conditions: Homo sapiens; AsPC1, 72 hours; read-out: IC50 of INT2-31, cell viability
Procedure: (§1) Cell viability (MTT) and CFSE Proliferation assay: Cells were plated in 96-well plates and let adhere overnight. After cell treatment, cell viability was measured by 3-(4,5-dimethylthiazol-2-yl)-2,5-diphenyl tetrazolium bromide (MTT) assay (CellTiter 96® Aqueous, Promega, Madison, Wis.).
(§2) Cell viability and detachment assays: After cells were treated with siRNA transfection, cell viability was measured by 3-(4,5-dimethylthiazol2-yl)-2,5-diphenyl tetrazolium bromide (MTT) assay (CellTiter 96® AQueous, Promega, Madison, Wis.). Briefly, 20 μl of the tetrazolium compound was added to each well. The cells were then incubated at 37° C. for 1 h. The plate was read at 490 nm with a plate reader to determine the viability. In detachment assays, detached and attached cells were harvested separately and counted in a hemocytometer. The percentage of detachment was calculated by dividing the number of detached cells by the total number of cells. Apoptosis assays: After treatment, attached and detached cells were collected, counted and prepared for terminal uridine deoxynucleotidyl transferase (TUNEL) assay by utilizing an APO-BRDU kit (BD Pharmingen, San Diego, Calif.) according to the manufacturer's instructions. Stained cells were analyzed with a fluorescence-activated cell sorting-Calibur flow cytometer (BD Biosciences). […] Apoptotic cells were also analyzed by Hoechst staining. […]

[2] = tested on: Panc-1 orthotopic xenografts; test: Orthotopic pancreatic xenograft, Panc-1; assay type: in vivo, mice; set-up: dose or concentration left out as unconfirmed; conditions: Panc-1, 21 days
Description: (§3) For the orthotopic model of pancreatic cancer, the University of Florida IACUC approved the following protocol (IACUC Study #2000801506). The pancreatic cancer cell lines, Mia paca-2 and Panc-1 cells were stably transfected using luciferase-RFP (red fluorescent protein) reporter gene for in vivo imaging of the xenografts. Following expansion and sorting of RFP positive cells, cells were expanded in culture and 5×10^6 tumor cells were implanted into the pancreas of 20 mice. For intra-pancreatic implantation of cells, mice were anesthetized with Isoflurane using the ACS provided and maintained rodent anesthesia machine. Under sterille surgical conditions, via 1.0 cm incision of the skin, abdominal wall and peritonium, the spleen was retracted and cells were injected in […] into the tail of the pancreas using a 29-gauge needle. The abdominal wall and peritoneum was sutured using 5.0 absorbable surgical sutures and the skin was closed with medical glue (dermabond). Postoperative analgesia was 0.05 mg/kg of buprenorphine subcutaneously per 8-12 hours postoperatively.
(§4) Mice were hand restrained prior to intraperitoneal injections. Mice were euthanized 6 weeks after tumor innoculation and tumor and tissue collected. As described below, mice were imaged weekly with the IVIS lumina imager and tumor size was estimated by the bioluminescent signal. […]

A375 melanoma cells = test: Cell viability (MTT), A375; assay type: cell-based, human
Procedure: as §1
Cell viability and detachment assays: After cells were treated with siRNA transfection, cell viability was measured by 3-(4,5-dimethylthiazol2-yl)-2,5-diphenyl tetrazolium bromide (MTT) assay (CellTiter 96® AQueous, Promega, Madison, Wis.). Briefly, 20 μl of the tetrazolium compound was added to each well. The cells were then incubated at 37° C. for 1 h. The plate was read at 490 nm with a plate reader to determine the viability. In detachment assays, detached and attached cells were harvested separately and counted in a hemocytometer. The percentage of detachment was calculated by dividing the number of detached cells by the total number of cells. Apoptosis assays: After treatment, attached and detached cells were collected, counted and prepared for terminal uridine deoxynucleotidyl transferase (TUNEL) assay by utilizing an APO-BRDU kit (BD Pharmingen, San Diego, Calif.) according to the manufacturer's instructions. Stained cells were analyzed with a fluorescence-activated cell sorting-Calibur flow cytometer (BD Biosciences). Calculation of the percentage of apoptotic cells in the sample was completed with CellQuest software (BD Biosciences). Apoptotic cells were also analyzed by Hoechst staining. Hoechst 33342 ([…]) was added to the fixed cells and the specimens were mounted on glass coverslips. The slides were viewed under the Zeiss microscope for apoptotic nuclei. The percent of apoptotic cells was calculated as the ratio of apoptotic cells to total number of cells.
In addition, the effect of INT2-31 on cell viability of esophageal, pancreatic and breast cancer cell lines was analyzed and the IC50 value for each cell line was determined, as shown in Table 1. […] Similar to melanoma results, INT2-31 inhibits viability more in cancer cells compared to normal cells. […]

[3] = tested on: Miapaca-2 orthotopic xenografts; test: Orthotopic pancreatic xenograft, Miapaca-2; assay type: in vivo, mice
Description: as §3, §4

C8161 melanoma cells = test: CFSE cell proliferation assay, C8161; assay type: cell-based, human; conditions: effect greater than in A375
Procedure: For staining with CFSE (Molecular Probes, Eugene, Oreg.)., 1×10^7/ml cells were suspended in PBS and incubated at 37° C. for 5 min with the 10 μM of CFSE. Stained cells were cultured with medium alone or with inhibitor for 24, 48, and 72 hours, fixed and analyzed by a FACS Calibur cytometer (Becton Dickinson, San Jose, Calif.).

[4] = tested on: TE7 esophageal cancer cells; test: Cell viability (MTT), TE7; assay type: cell-based; conditions: TE7, 72 hours; read-out: IC50 of INT2-31, cell viability
Procedure: as §1, §2

[5] = Previous toxicity testing at 50 mg/kg/day; assay type: in vivo, mice; conditions: 50 mg/kg/day i.p.

In the case of CSc1ncnc2c1ccn2C1O[C@H](COP(=O)(O)O)[C@@H](O)[C@H]1O (stereo partly drawn) [INT2-31, 4-(Methylthio)-7-(5-O-phosphono-D-ribofuranosyl)-{7H-Pyrrolo[2,3-d]pyrimidine}], the IC50 [1] is reported as 16.9 µM, the “growth of the orthotopic pancreatic xenografts” value [2] is reported as “sufficiently reduced the growth” and the “cell viability (in words)” value (A375 melanoma cells; A375, MTT) is reported as “inhibited cell viability in a dose-dependent manner”. For the same molecule, the IC50 (A375 melanoma cells; Homo sapiens, A-375, A375, 72 hours, read-out: IC50 of INT2-31, cell viability) was 2.7 µM, the “growth of the orthotopic pancreatic xenografts” value ([3]; Miapaca2, daily intraperitoneal 50 mg/kg, 21 days) was “sufficiently reduced the growth” and the “side effects as measured by body weights and appearances of the animals” value ([3]; both orthotopic models) was “without any significant side effects”. For the same molecule, the “cell proliferation (CSFE)” value (C8161 melanoma cells) was “inhibited cell proliferation”, the IC50 [4] was 3.2 µM and the toxicity [5] was “no measurable toxicity”.
